Assay results from patent publication US12428378B2, “Methods and materials for increasing level of phosphorylated AMPK protein” (University of Pittsburgh—Of the Commonwealth System of …, priority 2019, dated 2025).
Where “and” joins values, the source holds several entries; their conditions need not be identical. Equal entries are not always repeated. Where two headings read alike, the source gives them in different places.

Tests used:
[1] = test system: methicillin resistant Staphylococcus aureus (strain ATCC 33591); assay: Antimicrobial efficacy against MRSA lung infection in neutropenic BALB/c mice; assay type: in vivo; conditions: 25 mg/kg orally once a day, days -4 to 0; lungs 24 hours after inoculation; p<0.01 compared to vehicle
Protocol: Groups of 5-10 female BALB/c mice weighing 20±2 g were used in this study. Animals were rendered immune suppressed by treatment with 250 mg/kg of cyclophosphamide IP at 4 and 2 days before infection (Day −4 and −2). Vehicle 10% DMA (N,N-dimethylacetamide):40% PEG300:50% H2O) and/or test substances were administered on days −4, −3, −2, −1 and 0.
On day 0, immediately following the final dose, animals were inoculated intranasally (0.02 mL/lung) with 1-5×10^6 colony forming units (CFU)/mouse of MRSA (ATCC 33591) after being anaesthetized by etomidate (20 mg/kg dose, IV). In addition, following the final dose, blood was collected at 0, 0.5 h, 1 h, 2 h, 4 h and 24 h from three animals of each group, via facial veins. Terminal blood samples were taken by cardiac puncture. Blood samples were drawn into K2EDTA anti-coagulant coated mini collection tubes. The blood was collected from group 1 after sacrifice as the blank for PK analysis. Samples were stored on ice for no more than one hour then centrifuged at 2500×g for 15 min at 4° C. Plasma (˜50 μL) was stored at −80° C. until analysis.
At 24 hours after inoculation, the animals were humanely euthanized with CO2 asphyxiation, and the lung tissue was harvested from each of the test animals. The tissues were homogenized in 1 mL of PBS. […]

pAMPK = pAMPK immunostaining chemiluminescence assay in Beas2B cells; assay type: cell-based; conditions: Homo sapiens, BEAS-2B, 18 h, DMEM no glucose media, compounds 3-34, 36-44, 47-60 tested as HCl salts, read-out: efficacy (minimal compound concentration needed to increase pAMPK by 30%)
Protocol: Beas2B cells were plated in 384 white nunc plate (4000 cells per well) for overnight. Compounds were serially diluted in DMEM no glucose media using the liquid handler. Cells were washed once using Biotek EL406 before compound addition for additional 18 hours. Cells were washed and fixed with PFA before immunostained with pAMPK primary antibody and anti-Rabbit HRP secondary antibody. Finally, 25 μl of ECL reagent will be added to cells, and chemical luminescence signal will be counted using plate reader. Compounds efficacies (μM) were determined by the minimal compound concentration needed to increase pAMPK by 30%. Activity: “+” equals >10 μM; “++” equals between ≤10 μM and >1 μM; and “+++” equals ≤1 μM.

[2] = Plasma exposure and PK of compound 63 in mouse plasma (HPLC-MS/MS); assay type: in vivo

For `Cc1ccccc1CN(CCCOc1ccc(C(F)(F)F)cc1)Cc1cccnc1` [compound 63], the “clearance of MRSA from the lung (CFU)” value [1] was “cleared MRSA from the lung”, the EC (30% increase) (pAMPK) was at most 1 µM and the “Sample concentration, individual animals” value ([2]; 25 mg/kg PO QD x 5, time 0 h, 25 mg/kg) was 3 ng/mL and 0 ng/mL (2×). The “Sample concentration, individual animals” value ([2]; 25 mg/kg PO QD x 5, time 0.5 h, 25 mg/kg) was 180 ng/mL and 243 ng/mL and 390 ng/mL, the “Sample concentration, individual animals” value ([2]; 25 mg/kg PO QD x 5, time 1 h, 25 mg/kg) was 95 ng/mL and 120 ng/mL and the “Sample concentration, individual animals” value ([2]; 25 mg/kg PO QD x 5, time 2 h, 25 mg/kg) was 16 ng/mL and 36 ng/mL and 31 ng/mL. For the same compound, the “Sample concentration, individual animals” value ([2]; 25 mg/kg PO QD x 5, time 4 h, 25 mg/kg) was 22 ng/mL and 38 ng/mL and 18 ng/mL, the “Sample concentration, individual animals” value ([2]; 25 mg/kg PO QD x 5, time 24 h, 25 mg/kg) was 7 ng/mL and 0 ng/mL and 3 ng/mL and the AUC(0-inf) ([2]; BALB/c, dose PO 25 mg/kg) was 622 ng·h/mL. It also gave an AUC(0-t) ([2]; BALB/c, dose PO 25 mg/kg) of 593 ng·h/mL, a Cmax ([2]; BALB/c, dose PO 25 mg/kg) of 271 ng/mL and a Tmax ([2]; BALB/c, dose PO 25 mg/kg) of 30 min. The concentration at 0 h ([2]; BALB/c, mouse, plasma, po, 25 mg/kg, 25 mg/kg PO QD x 5, time 0 h, excluded from the PK calculation, read-out: Sample concentration, mean) was 1 ng/mL, the concentration at 0.5 h ([2]; BALB/c, mouse, plasma, po, 25 mg/kg, 25 mg/kg PO QD x 5, time 0.5 h, read-out: Sample concentration, mean) was 271 ng/mL and the concentration at 1 h ([2]; BALB/c, mouse, plasma, po, 25 mg/kg, 25 mg/kg PO QD x 5, time 1 h, read-out: Sample concentration, individual animals) was 184 ng/mL. It also gave a concentration at 1 h ([2]; BALB/c, mouse, plasma, po, 25 mg/kg, 25 mg/kg PO QD x 5, time 1 h, read-out: Sample concentration, mean) of 133 ng/mL, a concentration at 2 h ([2]; BALB/c, mouse, plasma, po, 25 mg/kg, 25 mg/kg PO QD x 5, time 2 h, read-out: Sample concentration, mean) of 28 ng/mL and a concentration at 4 h ([2]; BALB/c, mouse, plasma, po, 25 mg/kg, 25 mg/kg PO QD x 5, time 4 h, read-out: Sample concentration, mean) of 26 ng/mL. It also gave a concentration at 24 h ([2]; BALB/c, mouse, plasma, po, 25 mg/kg, 25 mg/kg PO QD x 5, time 24 h, read-out: Sample concentration, mean) of 3 ng/mL, an AUC/D ([2]; dose PO 25 mg/kg) of 25 kg·ng·h/mL/mg and an AUCExtr ([2]; dose PO 25 mg/kg) of 5%. For the same compound, the MTR ([2]; dose PO 25 mg/kg) was 4.96 h.
With `Cc1ccccc1CN(CCOc1ccc(C(F)(F)F)cc1)Cc1cncn1C` [compound 171] the EC (30% increase) (pAMPK) was 1 to 10 µM.
Compound `FC(F)(F)c1ccc(OCCN(Cc2cncs2)Cc2ccccc2Cl)cc1` [compound 172] has an EC (30% increase) (pAMPK) of at most 1 µM.
Work on `Fc1ccccc1CN(CCOc1ccc(C(F)(F)F)cc1)Cc1cncs1` [compound 173] yielded an EC (30% increase) (pAMPK) of at most 1 µM.
In the case of `FC(F)(F)c1ccc(OCCCN(Cc2cccnc2)Cc2ccccc2C(F)(F)F)cc1` [compound 174], the EC (30% increase) (pAMPK) is reported as at most 1 µM.
Compound `Cn1ccnc1C1Cc2ccccc2CN1CCCOc1ccc(C(F)(F)F)cc1` (stereo not drawn) [compound 175] has an EC (30% increase) (pAMPK) of at most 1 µM.
For `Cc1ccccc1CN(CC(O)COc1ccc(C(F)(F)F)cc1)C(C)c1cncs1` (stereo not drawn) [compound 176], the EC (30% increase) (pAMPK) was 1 to 10 µM.
Work on `[2H]C(C)(c1cccnc1)N(Cc1ccccc1C)CC(O)COc1ccc(C(F)(F)F)cc1` (stereo not drawn) [compound 177] yielded an EC (30% increase) (pAMPK) of over 10 µM.
`CC1(c2cccnc2)Cc2ccccc2CN1CC(O)COc1ccc(C(F)(F)F)cc1` (stereo not drawn) [compound 178] showed an EC (30% increase) (pAMPK) of at most 1 µM.
Compound `Cc1ccccc1CN(Cc1cccnn1)CC(C)(C)COc1ccc(C(F)(F)F)cc1` [compound 181] has an EC (30% increase) (pAMPK) of at most 1 µM.
For `Cc1ccccc1CN(CCCOc1ccc(C(F)(F)F)cc1)Cc1ccnnc1` [compound 182], the EC (30% increase) (pAMPK) was at most 1 µM.
In the case of `Cc1ccccc1CN(CCCOc1ccc(C(F)(F)F)cc1)Cc1cccnn1` [compound 183], the EC (30% increase) (pAMPK) is reported as at most 1 µM.
`CC(C)(COc1ccc(C(F)(F)F)cc1)CN(Cc1cccnc1)Cc1cccnc1` [compound 184] gave an EC (30% increase) (pAMPK) of at most 1 µM.
With `CC(C)(COc1ccc(C(F)(F)F)cc1)CN(Cc1cccnc1)Cc1ccccc1F` [compound 185] the EC (30% increase) (pAMPK) was at most 1 µM.
`CC(C)(COc1ccc(C(F)(F)F)cc1)CN(Cc1cccnc1)Cc1ccccc1Cl` [compound 186] showed an EC (30% increase) (pAMPK) of at most 1 µM.
`COC(=O)C1c2ccccc2CCN1CCCOc1ccc(C(F)(F)F)cc1` (stereo not drawn) [compound 187] showed an EC (30% increase) (pAMPK) of at most 1 µM.
`OCC1c2ccccc2CCN1CCCOc1ccc(C(F)(F)F)cc1` (stereo not drawn) [compound 188] showed an EC (30% increase) (pAMPK) of at most 1 µM.
Work on `Cc1ccc2c(c1)CC(c1nccn1C)N(CC(O)COc1ccc(C(F)(F)F)cc1)C2` (stereo not drawn) [compound 189] yielded an EC (30% increase) (pAMPK) of over 10 µM.
Compound `Cc1ccccc1CN(Cc1cccnc1)CC(C)(C)COc1cnc(C(F)(F)F)nc1` [compound 190] has an EC (30% increase) (pAMPK) of 1 to 10 µM.
`Cc1ccccc1CN(Cc1cccnc1)CC(C)COc1ccc(C(F)(F)F)cc1` (stereo not drawn) [compound 191] showed an EC (30% increase) (pAMPK) of at most 1 µM.
`Cc1ccccc1CN(CC(C)(C)COc1ccc(C(F)(F)F)cc1)C(=O)c1cncn1C` [compound 192] gave an EC (30% increase) (pAMPK) of at most 1 µM.
With `Cn1cncc1C(=O)N(Cc1cccnc1)CC(C)(C)COc1ccc(C(F)(F)F)cc1` [compound 193] the EC (30% increase) (pAMPK) was at most 1 µM.
`Cn1cncc1C(=O)N(Cc1ccccc1Cl)CC(C)(C)COc1ccc(C(F)(F)F)cc1` [compound 194] showed an EC (30% increase) (pAMPK) of at most 1 µM.
In the case of `Cc1ccccc1CN(CC(C)COc1ccc(C(F)(F)F)cc1)C(=O)c1cncn1C` (stereo not drawn) [compound 195], the EC (30% increase) (pAMPK) is reported as at most 1 µM.
`CC(C)(COc1cnc(C(F)(F)F)nc1)CN(Cc1cccnc1)Cc1ccccc1C(F)(F)F` [compound 196] gave an EC (30% increase) (pAMPK) of 1 to 10 µM.
`CC(C)(COc1ccc(C(F)(F)F)cc1)CN(Cc1cccnc1)Cc1ccccc1C(F)(F)F` [compound 197] gave an EC (30% increase) (pAMPK) of at most 1 µM.
`Cc1ccccc1CN(CC(O)COc1ccc(C(F)(F)F)cc1)[C@@H](c1cccnc1)C(F)(F)F` (stereo partly drawn) [compound 198] showed an EC (30% increase) (pAMPK) of over 10 µM.
Compound `Cn1ccnc1C1c2ccccc2CCN1CCCOc1ccc(C(F)(F)F)cc1` (stereo not drawn) [compound 199] has an EC (30% increase) (pAMPK) of 1 to 10 µM.
With `Cc1ccccc1CN(Cc1cccnc1)CC(C)(O)COc1ccc(C(F)(F)F)cc1` (stereo not drawn) [compound 200] the EC (30% increase) (pAMPK) was at most 1 µM.
For `Cn1cncc1C(=O)N(Cc1ccccc1Cl)CC(C)(O)COc1ccc(C(F)(F)F)cc1` (stereo not drawn) [compound 201], the EC (30% increase) (pAMPK) was 1 to 10 µM.
